{
  "source": "patent US20090214607A1",
  "about": "“Topical use of teprenone” (SEDERMA, priority 2005, published 2009)",
  "key": {"[1]": {"system": "Normal human fibroblasts (NHF)", "test": "Replicative senescence: variation of division number", "assay_type": "cell-based", "conditions": "1 and 3 μM; long-term contact; 64th day to 95th day", "experimental": "Replicative senescence reflects the aging of cells in cultures as they are serially sub-cultured. Normal human fibroblasts (NHF) were cultured in the absence or presence of 1 and 3 μM teprenone. At regular intervals, without awaiting confluence, the cells were counted, observed and sub-cultured at the same rate."}, "[2]": {"system": "VEGF", "test": "VEGF in supernatant of γ-irradiated NHEK cells (ELISA)", "assay_type": "cell-based, human", "conditions": "for decrease of VEGF: vs irradiated control; for expression VEGF: γ-irradiation 5 Gγ, 4 days", "experimental": "In order to determine the action of teprenone as per the invention, the effect of GGA on the IL8 and VEGF expression was investigated in the supernatants of irradiated (with 5 Gy) NHEK cells. After γ-irradiation, NHEK cells are treated during 4 days with or without GGA at differents concentrations. The amount of IL8 and VEGF present in the cells supernatant is determined with ELISA method."}, "[3]": {"system": "Thioredoxin", "test": "Thioredoxin in cellular supernatant of human fibroblasts (ELISA), with or without UVA", "assay_type": "cell-based", "conditions": "for Thioredoxin rate in cellular supernatant: 10^−3%", "experimental": "Normal human fibroblasts were tested to ascertain whether exposure to teprenone would stimulate thioredoxin expression in the cellular supernatants.\nHuman fibroblasts (FHN) in culture were irradiated with UVA (4 and 6 J/cm^2) or not irradiated (control). 24 h before the irradiation, these cells were grown without or with teprenone (GGA at 10^−3%). After irradiation, each case received the same medium (with or without GGA) as before irradiation. Incubations of 24 or 48 h with these fresh mediums were made. Thioredoxin in the cellular supernants was estimated using ELISA method. The results obtained are recapitulated in Table 3"}, "[4]": {"system": "catalase", "test": "Catalase activity in human skin explants after UVB (Clairborne-Aebi method)", "assay_type": "cell-based", "conditions": "for protective effect on enzymatic activity of catalase: vs UVB; for catalase activity: after UVB 2 J/cm2", "experimental": "Human skin explants obtained from a patient having undergone plastic surgery were cultured with or without teprenone or Trolox (positive control) for 48 hours then exposed to UV B radiation (2 J/cm^2). After irradiation, the explants were again cultured in fresh medium with or without teprenone or Trolox for 24 hours. Similars explants were also used in immunolabeling tests on heat shock proteins (HSP) and in the apoptosis study.\nCatalase anti-oxidant activity was determined by the Clairborne-Aebi method. Hydrogen peroxide (H2O2) consumption is directly proportional to catalase activity. The consumption was determined by spectrophotometry at 240 nm"}, "[5]": {"system": "human primary keratinocytes", "test": "Gene expression profile by DNA array (CodeLink Whole Genome bioarray)", "assay_type": "cell-based", "experimental": "Human primary keratinocyte cultures were prepared and incubated in the presence or absence of teprenone. The culture supernatants were withdrawn and the cell monolayers frozen at −80° C. The un-thawed monolayers were exposed to lysis buffer and the cell RNA extracted using a commercially-available kit (Roche kit V6: total RNA extraction). Solvent controls underwent the same extraction process in parallel. The expression profiles of the gene sequences were determined using a CodeLink Whole Genome bioarray for each sample of purified RNA. The values obtained were normalized relative to the controls."}, "[6]": {"test": "Lipid peroxidation of liposomes using H2O2+FeCl2", "assay_type": "biochemical", "conditions": "for Variation of peroxydation: vs negative control", "experimental": "In order to determine the action of teprenone as per the invention, the effect of the active substance on the lipid peroxidation of liposomes was analyzed. The liposomes were used to model cutaneous lipids.\nIn this method, liposomes are exposed to the test compound and a Fenton oxidative system. The peroxidation is determined by spectrophotometry. Trolox, a known anti-free radical agent, is used as the positive control at the same molar concentration as a teprenone."}, "[7]": {"system": "Hsp70", "test": "Hsp70 immunolabeling in UVB-irradiated human skin explants", "assay_type": "cell-based", "conditions": "for Number of Hsp70 positive cells/cm: UVB 2 J/cm2, n = 3", "excerpt": "(§1) Heat Schock proteins (Hsp) are cellular protective molecules which contribute to the correct proteinic folding, thus preserving the protein activity. Hsp 27 is a protective chaperone protein very present in the keratinocytes at the basal state. In situation of UV stress, cell increases its rate of protection and Hsp 27 is strongly overexpressed. Hsp70 is a chaperone protein less expressed in a basal state but induced in response to the UV, thermics, mechanics or infectious stress.\n(§2) Human skin explants are treated in a similar way to the previous experiment (protection on the catalase activity): taken from a plastic surgery, they are cultivated for 48 h in the presence or not, for control, of teprenone (or trolox) at various concentrations, then irradiated or not using a source UVB (2 J/cm2). After irradiation skin explants were post-treated (24 h) or not with teprenone (or trolox) at the same concentrations.\n(§3) Explants were embedded in OCT, sectioned using a freezing microtome, and slide mounted. The mounted specimens were immunolabeled with anti-human Hsp antibody."}, "[8]": {"system": "Hsp27", "test": "Hsp27 immunolabeling in UVB-irradiated human skin explants", "assay_type": "cell-based", "conditions": "for Number of Hsp27 positive cells/cm: UVB 2 J/cm2, n = 3", "excerpt": "as §1, §2, §3"}, "[9]": {"system": "sunburn cells (SBC) in human skin explants", "test": "Sunburn cells (SBC) in human skin explants after UVB", "assay_type": "cell-based", "conditions": "for % SBC (Sun Burn Cells): after UVB 2 J/cm^2", "experimental": "With a view to determining the action of teprenone as per the invention, the effect of the active substance on the presence of sunburn cells (SBC) and apoptotic cell in human skin explants was investigated.\nHuman skin explants are treated in a way similar to the preceding experiment of description of the protective role of the teprenone on the catalase activity (obtained from a patient having undergone plastic surgery, cultured with or without teprenone for 48 hours then exposed to UV B radiation (2 J/cm^2). After irradiation, the explants were again cultured in fresh medium with or without teprenone for 24 hours).\nSBC were evidenced on paraffin-wax-embedded skin explant sections by staining with […]. SBC, apoptotic keratinocytes with pyknotic nuclei and eosinophilic cytoplasm, are characteristic of mammalian epidermis exposed to UV B radiation."}},
  "data": [
    {"smiles": "CC(=O)CCC=C(C)CCC=C(C)CCC=C(C)CCC=C(C)C", "note": "[Teprenone, 6,10,14,18-tetramethyl-5,9,13-nonadecatetren-2-one]", "values": [
      {"measurement": "capacities of divisions of the cells", "setting": "[1]", "result": "level higher compared to the control"},
      {"measurement": "decrease of VEGF", "setting": "[2]; 1 · 10^−4%", "result": "−47", "unit": "%"},
      {"measurement": "decrease of VEGF", "setting": "[2]; 3 · 10^−5%", "result": "−30", "unit": "%"},
      {"measurement": "expression VEGF", "setting": "[2]; 1 · 10^−4%", "result": 3, "unit": "pg/10⁵ cells"},
      {"measurement": "expression VEGF", "setting": "[2]; 3 · 10^−5%", "result": 3.5, "unit": "pg/10⁵ cells"},
      {"measurement": "Thioredoxin rate in cellular supernatant", "setting": "[3]; UVA 4 J/cm^2, incubation 24 h", "result": 24.3, "unit": "ng/mg protein"},
      {"measurement": "Thioredoxin rate in cellular supernatant", "setting": "[3]; UVA 4 J/cm^2, incubation 48 h", "result": 32.4, "unit": "ng/mg protein"},
      {"measurement": "Thioredoxin rate in cellular supernatant", "setting": "[3]; UVA 6 J/cm^2, incubation 24 h", "result": 43.7, "unit": "ng/mg protein"},
      {"measurement": "Thioredoxin rate in cellular supernatant", "setting": "[3]; UVA 6 J/cm^2, incubation 48 h", "result": 59.2, "unit": "ng/mg protein"},
      {"measurement": "Thioredoxin rate in cellular supernatant", "setting": "[3]; not irradiated, incubation 24 h", "result": 11.6, "unit": "ng/mg protein"},
      {"measurement": "Thioredoxin rate in cellular supernatant", "setting": "[3]; not irradiated, incubation 48 h", "result": 28.5, "unit": "ng/mg protein"},
      {"measurement": "increase of thioredoxin rate in the cellular supernatant", "setting": "[3]; 24 h incubation, 4 J/cm^2", "result": "+30%"},
      {"measurement": "increase of thioredoxin rate in the cellular supernatant", "setting": "[3]; 24 h incubation, 6 J/cm^2", "result": "+40%"},
      {"measurement": "increase of thioredoxin rate in the cellular supernatant", "setting": "[3]; 24 h incubation, without irradiation", "result": "+60%"},
      {"measurement": "increase of thioredoxin rate in the cellular supernatant", "setting": "[3]; 48 h incubation, 4 J/cm^2", "result": "+50%"},
      {"measurement": "increase of thioredoxin rate in the cellular supernatant", "setting": "[3]; 48 h incubation, 6 J/cm^2", "result": 40, "unit": "%"},
      {"measurement": "increase of thioredoxin rate in the cellular supernatant", "setting": "[3]; 48 h incubation, non irradiated", "result": "+150%"},
      {"measurement": "protective effect on enzymatic activity of catalase", "setting": "[4]; 0.05 mM", "result": "+40%"},
      {"measurement": "protective effect on enzymatic activity of catalase", "setting": "[4]; 0.1 mM", "result": "+45%"},
      {"measurement": "catalase activity", "setting": "[4]; 0.05 mM", "result": "125 UI/mg of protein"},
      {"measurement": "catalase activity", "setting": "[4]; 0.1 mM", "result": "130 UI/mg of protein"},
      {"measurement": "expression of CBX5/HP1", "setting": "[5]; 24 hour period", "result": "jointly activated"},
      {"measurement": "expression of CDK2", "setting": "[5]; 24 hour period", "result": "jointly activated"},
      {"measurement": "expression of ELAVL1", "setting": "[5]; 24 hour period", "result": "activation"},
      {"measurement": "expression of ERBIN gene", "setting": "[5]; 24 hour period", "result": "up-regulated"},
      {"measurement": "expression of PTPRF-interacting gene", "setting": "[5]; 24 hour period", "result": "up-regulated"},
      {"measurement": "expression of SERTAD3", "setting": "[5]; 24 hour period", "result": "activated"},
      {"measurement": "expression of gene SCLY", "setting": "[5]; 24 hour period", "result": "significantly up-regulated"},
      {"measurement": "expression of gene for heat shock protein HSP 27", "setting": "[5]; 24 hour period", "result": "induction"},
      {"measurement": "expression of gene for heat shock protein HSP B3", "setting": "[5]; 24 hour period", "result": "induction"},
      {"measurement": "genes activated, effect on cell lipid content", "setting": "[5]; cholesterol efflux and fatty acid synthesis", "result": 6, "unit": "genes"},
      {"measurement": "Variation of peroxydation", "setting": "[6]; concentration 3 · 10^−2%", "result": "−75", "unit": "%"},
      {"measurement": "Variation of peroxydation", "setting": "[6]; concentration 3 · 10^−3%", "result": "−26", "unit": "%"},
      {"measurement": "Variation of peroxydation", "setting": "[6]; concentration 3 · 10^−4%", "result": "−16", "unit": "%"},
      {"measurement": "decrease in peroxidation", "setting": "[6]; concentration 3.10^−2%", "result": 75, "unit": "%"},
      {"measurement": "Variation of peroxydation", "setting": "[6]; concentration 10^−2%", "result": "−39", "unit": "%"},
      {"measurement": "Variation of peroxydation", "setting": "[6]; concentration 10^−3%", "result": "−20", "unit": "%"},
      {"measurement": "Hsp70: Protection vs. irradiated (%)", "setting": "[7]; 0.05 mM", "result": 66, "unit": "%"},
      {"measurement": "Hsp70: Protection vs. irradiated (%)", "setting": "[7]; 0.1 mM", "result": 100, "unit": "%"},
      {"measurement": "Hsp70: Protection vs. irradiated (%)", "setting": "[7]; 0.1 mM, listed as GGA", "result": 100, "unit": "%"},
      {"measurement": "Number of Hsp70 positive cells/cm", "setting": "[7]; 0.05 mM", "result": 130, "unit": "cells/cm"},
      {"measurement": "Number of Hsp70 positive cells/cm", "setting": "[7]; 0.1 mM", "result": 40, "unit": "cells/cm"},
      {"measurement": "Hsp27: Protection vs. irradiated (%)", "setting": "[8]; 0.05 mM", "result": 50, "unit": "%"},
      {"measurement": "Hsp27: Protection vs. irradiated (%)", "setting": "[8]; 0.1 mM", "result": 75, "unit": "%"},
      {"measurement": "Hsp27: Protection vs. irradiated (%)", "setting": "[8]; 0.1 mM, listed as GGA", "result": 75, "unit": "%"},
      {"measurement": "Number of Hsp27 positive cells/cm", "setting": "[8]; 0.05 mM", "result": 530, "unit": "cells/cm"},
      {"measurement": "Number of Hsp27 positive cells/cm", "setting": "[8]; 0.1 mM", "result": 400, "unit": "cells/cm"},
      {"measurement": "% SBC (Sun Burn Cells)", "setting": "[9]; 0.05 mM", "result": 45, "unit": "%"},
      {"measurement": "% SBC (Sun Burn Cells)", "setting": "[9]; 0.1 mM", "result": 27, "unit": "%"},
      {"measurement": "diminution of SBC", "setting": "[9]; after UVB, vs irradiated", "result": "−66", "unit": "%"}
    ]}
  ]
}
